We go through 10 molecules from PubChem BioAssay (NCI).

What all share (test): NCI-60 cell line screen, 48 h
Assay [1] has as its system SF-295 CNS.
Assay [2] has as its system SR leukemia.
The test system of assay [3] is ACHN renal.
For assay [4], the system named is IGROV1 ovarian.
For assay [5], the system named is BT-549 breast.
Assay [6] relates to UACC-257 melanoma.
Assay [7] concerns SN12C renal.
The subject of assay [8] is NCI-H23 lung.
Assay [9] relates to SNB-19 CNS.
In assay [10] the test system is SF-268 CNS.
Assay [11] deals with K-562 leukemia.
The test system of assay [12] is HCT-116 colon.
Assay [13] deals with 786-0 renal.
Assay [14] has as its system CAKI-1 renal.
For assay [15], the system named is UACC-62 melanoma.
The subject of assay [16] is KM12 colon.
The test system of assay [17] is T-47D breast.

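Five concentrations, 48 hours, 96-well plates. TGI is the concentration that stops growth completely.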

As for `COC(=O)C1=C(C(=O)OC)SC(=C2c3ccsc3-c3sccc32)S1`, the TGI in assay [1] was 53.5 µM; in assay [2], above 100 µM; in [3], above 100 µM; in assay [4], above 100 µM; in assay [5] it was above 100 µM; in [6] it was above 100 µM. The TGI in [7] was above 100 µM; in assay [8], 56.2 µM; in [9] it was above 100 µM; in [10], 57.3 µM; in assay [11] it was above 100 µM; in assay [12], above 100 µM. Further, the TGI in [13] is 56.8 µM; in [14], above 100 µM; in assay [15], above 100 µM; in assay [16], above 100 µM.
With `Cn1c(=O)cc(NNc2ccc(Br)cc2)[nH]c1=O`, the TGI was 26.2 µM in assay [1]; above 100 µM in [2]; 29.9 µM in [3]; 23.1 µM in assay [4]; 30.6 µM in assay [5]; 29.1 µM in assay [6]. The TGI is 22.6 µM in [7]; 26.5 µM in [9]; above 100 µM in assay [11]; 29.3 µM in assay [12]; 21.4 µM in assay [13]; 10.4 µM in [16].
For `NCCCCC(N)C(=O)N1CCN(c2nc(N3CCCC3)c3nc(Cl)c(NCc4ccccc4)nc3n2)CC1` (stereo unspecified), the TGI in assay [1] was 35.4 µM; in [2] it was 44.9 µM; in [3] it was 38.1 µM; in assay [4], 33.9 µM; in assay [5], 34.4 µM; in assay [6] it was 35.5 µM. In addition, the TGI in assay [7] was 34.3 µM; in assay [8] it was 37.9 µM; in assay [9], 33.2 µM; in assay [10] it was 45.2 µM; in [11], 47.2 µM; in assay [12], 32.1 µM. Besides, the TGI in assay [13] came to 33.1 µM; in [14] it was 91.8 µM; in [15] it was 36.7 µM; in assay [16] it was 47.2 µM.
Turning to `OC(c1ccsc1)c1cc2ccccc2s1` (stereo unspecified), the TGI in assay [1], in [2], in assay [3], in assay [4], in assay [6] and in [7] was above 10 µM each time. The TGI in assay [8], in assay [9], in assay [10], in [11], in assay [12] and in assay [13] was above 10 µM in each case. The TGI in [17], in assay [14], in assay [15] and in assay [16] was above 10 µM each time.
`COc1c(C(=O)/C(=N/Nc2ccccc2)C(C)=O)c(O)c(OC)c2occc12`: the TGI in assay [1], in [2], in assay [3], in assay [4], in [6] and in assay [7] was above 100 µM each time. Moreover, the TGI in assay [8], in [9], in assay [10], in assay [11], in assay [12] and in assay [13] was above 100 µM each time. For the same molecule, the TGI in assay [17], in assay [14], in assay [15] and in [16] was above 100 µM throughout.
As to `O=c1n(CCCN2CCN(c3cccc(Cl)c3)CC2)nc2n1-c1ccc3ccccc3c1SC2`, the TGI in assay [1], in assay [2], in assay [4], in [5], in assay [6] and in assay [7] was above 100 µM in each case. Moreover, the TGI in assay [9], in assay [11], in assay [12], in assay [13], in assay [14] and in assay [15] was above 100 µM throughout. The TGI in [16] was above 100 µM.
For `CC(=O)Nc1ccc2c3c(cc(O)c2c1)N(C(=O)CCCC(=O)Nc1ccc2c4c(cc(O)c2c1)N(C(=O)OC(C)(C)C)CC4CCl)CC3CCl` (stereo unspecified), the TGI in assay [1] is above 42.9 µM; in assay [3] it was 31.2 µM; in assay [4], above 50 µM; in assay [5] it was 3.75 µM; in assay [6], 3.34 µM; in [7] it was above 13.2 µM. Further, the TGI was 16.7 µM in assay [8]; above 15 µM in assay [9]; above 31.4 µM in assay [11]; above 50 µM in assay [12]; above 13.1 µM in assay [13]; 12.7 µM in [17]. Further, the figures for the TGI in [14], in assay [15] and in assay [16] were above 50 µM, 2.31 µM and 22.7 µM, respectively.
With `O=C(O)Cn1nnc2c(=O)[nH][nH]c(=O)c21`, the TGI in assay [1], in assay [2], in assay [3], in assay [5], in [6] and in assay [7] was above 100 µM in each case. For the same molecule, the TGI in [8] was above 100 µM; in assay [9], above 100 µM; in assay [11], above 10 µM; in assay [12], above 100 µM; in [13], above 100 µM; in [14], above 100 µM. Also, the TGI in assay [16] is above 100 µM.
Turning to `C/C(O)=C(/C=N\C(=S)Nc1ccc(Cl)c(Cl)c1)C(=O)Nc1ccccc1C`, the TGI in assay [1], in [3], in [4], in [5], in [6] and in assay [7] was above 100 µM each time. Also, the TGI in assay [8] is 76.8 µM; in [9], 84.2 µM; in assay [10] it was above 100 µM; in assay [12], above 100 µM; in assay [13], above 100 µM; in assay [17], 45.7 µM. Also, the results for the TGI in assay [14], in assay [15] and in [16] were 95.7 µM, 49.8 µM and above 100 µM, respectively.
Turning to `O=C1C=C(c2c(-c3ccccc3)[nH]c3ccccc23)C(=O)N1c1ccccc1`, the TGI turned out to be 25.3 µM in assay [1]; 71.4 µM in assay [3]; 51.4 µM in assay [4]; 24.1 µM in assay [5]; 30.6 µM in [6]; 22.5 µM in [7]. For the same molecule, the TGI was determined as 38.6 µM in assay [8]; 66.1 µM in assay [9]; 21.5 µM in [10]; 29.9 µM in assay [11]; 19.6 µM in assay [12]; 21.1 µM in assay [13]. For the same molecule, the TGI in assay [14] was 25.7 µM; in [15], 27.9 µM.
